In patent US9090667B2, “Cyclic peptide from Nonomuraea sp., process for the production thereof, and pharmaceutical composition for the prevention or treatment of mycobacteria related disease comprising the same” (priority 2011, dated 2015):
Values after ≈ are worked out from the molar mass of the structure shown. Read-outs that look alike come from different tables or passages of the source. Numbered stars: 1 amine (or outer) side, 2 acyl side, 3 side chain; on linkers, the order of the positions; unused ones are H or OH. Bridge positions count the residues as written; N and C are the ends. Square brackets hold non-standard residues; d marks the D form. Peptide text beside a SMILES is read from it. * marks the point of attachment. ξ: configuration not given here. NMeTrp(4-OMe) = CN[CH](Cc1c[nH]c2cccc(OC)c12)C(=O)O; X1 = O=C(C(N[*:1])C(O)c1ccccc1)[*:2]; NMeI = CC[CH](C)[CH](NC)C(=O)O; ξNMe2Val = CC(C)C(C(=O)*)N(C)C; NMeT = CN[CH](C(=O)O)[CH](C)O; NMeL = CN[CH](CC(C)C)C(=O)O; NMeV = CN[CH](C(=O)O)C(C)C

Legend:
Nonomuraea sp. MJM5123 = experiment: Antibiotic resistance test of the producing strain; format: cell-based; details: ISP2 medium, 2 weeks at 28° C.; for Growth in the presence of antibiotics: 50 μg/ml
Description: To test for melanoid pigments, peptone yeast extract iron agar (ISP6) and tyrosine agar (ISP7, with or without tyrosine) was used. Temperature range, NaCl tolerance and pH range for growth was determined on ISP3 medium and antibiotic resistance test was performed on ISP2 medium for 2 weeks at 28° C.

M. tuberculosis H37Rv [1] = experiment: Aerobic MBC99; format: cell-based, Mycobacterium tuberculosis; details: for classification from MBC99 versus MIC: MBC99 approximately two-fold higher than MIC; for MBC99: aerobic, H37Rv, minimum concentration that kills 99% of organisms
[2] = tested on: nonreplicating M. tuberculosis; format: cell-based, Mycobacterium tuberculosis; details: for concentration effecting a 99% reduction in viability (MBC under low oxygen): 10 days incubation under non-replicating conditions, cfu readout; for concentration reducing viability of non-replicating M. tuberculosis by one log10: LORA
Candida albicans = experiment: Antibacterial selectivity MIC; format: cell-based; details: C. albicans; for activity: at 31 μM
Description: (§1) Selectivities of H-14 and H-16 were determined by screening them against Escherichia coli, a Gram-negative bacterium, Staphylococcus aureus, a Gram-positive bacterium, Candida albicans, a yeast, and six mycobacterial species (Table 16).

Escherichia coli = experiment: Antibacterial selectivity MIC; format: cell-based; details: E. coli; for activity: at 31 μM
Description: as §1

Staphylococcus aureus = experiment: Antibacterial selectivity MIC; format: cell-based; details: S. aureus; for activity: at 31 μM
Description: as §1

M. smegmatis = experiment: Antibacterial selectivity MIC; format: cell-based, Mycobacterium smegmatis; details: compared with M. tuberculosis
Description: as §1

M. abscesses = experiment: Antibacterial selectivity MIC; format: cell-based, Mycobacterium abscessus; details: for activity: M. abscesses, compared with the other mycobacteria; for MIC: M. abscessus
Description: as §1

M. tuberculosis H37Pv = format: cell-based, Mycobacterium tuberculosis
Vero cells = experiment: Toxicity against mammalian cells (Vero); format: cell-based, African green monkey; details: for IC50: Vero cells, read-out: Vero cell IC50; for in vitro mammalian cell toxicity: at 100-fold their MBC; for cytotoxicity: highest testing concentration (32 μM)
Description: Cytoxicities of H-14 and H-16 against mammalian cells were evaluated by testing against Vero cells, an African green monkey kidney cell line (Table 18). No cytoxicity was found for either compound at even the highest testing concentration (32 μM).

M. tuberculosis H37Rv [3] = tested on: M. tuberculosis H37Rv
M. tuberculosis X003899 = details: IndoOceanic clade, strain X003899
M. tuberculosis X004439 = details: East Asian clade, strain X004439
M. tuberculosis X004244 = details: East Asian clade, strain X004244
M. tuberculosis X005282 = details: Euro-American clade, strain X005282
M. tuberculosis X005319 = details: Euro-American clade, strain X005319
M. tuberculosis X001354 = details: East African Indian clade, strain X001354
M. tuberculosis H37Rv [4] = experiment: microbe, parasite or virus in culture; details: Mycobacterium tuberculosis
[5] = aerobic, replicating M. tuberculosis H37Rv, concentration inhibiting growth by 90%

## CC1(C)S[C@@H]2[C@H](NC(=O)[C@H](N)c3ccccc3)C(=O)N2[C@H]1C(=O)O [Ampicillin]
Nonomuraea sp. MJM5123
  Growth in the presence of antibiotics: +
  susceptibility of MJM5123 to the antibiotic: resistant

## CN[C@@H]1[C@@H](O[C@H]2O[C@H](CO)[C@@H](N)[C@H](O)[C@H]2O)OC2C[C@@H](N)[C@@H](O[C@H]3[C@H](O)[C@@H](O)[C@H](N)C[C@@H]3N)OC2[C@@H]1O (stereo partly shown) [Apramycin]
Nonomuraea sp. MJM5123
  Growth in the presence of antibiotics: −
  susceptibility of MJM5123 to the antibiotic: susceptible

## CCC(C)C(C(=O)NC1C(=O)N(C)C(C(C)O)C(=O)NC(C(C)C)C(=O)N(C)C(CC(C)C)C(=O)NC(C(C)C)C(=O)N(C)C(C(C)C)C(=O)N(C)C(Cc2c[nH]c3cccc(OC)c23)C(=O)NC(C(C)C)C(=O)NC(C(O)c2ccccc2)C(=O)NC(C(C)C)C(=O)OC1C)N(C)C(=O)C(NC(=O)C(C(C)C)N(C)C)C(C)C (stereo not shown) [H-14] (ξNMe2Val-V[NMeI]T[NMeT]V[NMeL]V[NMeV][NMeTrp(4-OMe)]V[X1]V; ester 3-C; configuration not given here)
M. tuberculosis H37Rv [1]
  classification from MBC99 versus MIC: bactericidal
  MBC99: 0.34 µM (≈ 0.544 µg/mL)
[2]
  concentration effecting a 99% reduction in viability (MBC under low oxygen): approximately 1.5 μM
  concentration reducing viability of non-replicating M. tuberculosis by one log10: approximately 1.5 μM
Candida albicans
  MIC: >32 µM
  antimicrobial activity: Neither of the compounds displayed antimicrobial activity
  activity: no activity
Escherichia coli
  MIC: >32 µM
  antimicrobial activity: Neither of the compounds displayed antimicrobial activity
  activity: no activity
Staphylococcus aureus
  MIC: >32 µM
  antimicrobial activity: Neither of the compounds displayed antimicrobial activity
  activity: no activity
M. smegmatis
  activity: activity was lower
M. abscesses
  activity: significantly less active
  MIC: >63 µM
M. tuberculosis H37Pv; 0.5% BSA
  MIC vs. M. tuberculosis: 0.16 µM (≈ 0.256 µg/mL)
M. tuberculosis H37Pv; 4% BSA
  MIC vs. M. tuberculosis: 0.58 µM (≈ 0.928 µg/mL)
M. tuberculosis H37Pv; 10% BSA
  MIC vs. M. tuberculosis: 0.36 µM (≈ 0.576 µg/mL)
Vero cells
  IC50: > 32 µM
  in vitro mammalian cell toxicity: no in vitro mammalian cell toxicity
  cytotoxicity: No cytoxicity
M. tuberculosis H37Rv [3]; H37Rv reference in Table 15
  MIC: 0.38 µM (≈ 0.608 µg/mL)
M. tuberculosis H37Rv [3]; H37Rv reference in Table 19
  MIC: 0.16 µM (≈ 0.256 µg/mL)
M. tuberculosis H37Rv [3]; [5]
  MIC: 0.16 µM (≈ 0.256 µg/mL)
M. tuberculosis X003899
  MIC: 0.23 µM (≈ 0.368 µg/mL)
M. tuberculosis X004439
  MIC: 0.29 µM (≈ 0.464 µg/mL)
M. tuberculosis X004244
  MIC: 0.13 µM (≈ 0.208 µg/mL)
M. tuberculosis X005282
  MIC: 0.14 µM (≈ 0.224 µg/mL)
M. tuberculosis X005319
  MIC: 0.36 µM (≈ 0.576 µg/mL)
M. tuberculosis X001354
  MIC: 0.38 µM (≈ 0.608 µg/mL)

## CCC(C)C(C(=O)NC1C(=O)N(C)C(C(C)O)C(=O)NC(C(C)C)C(=O)N(C)C(CC(C)C)C(=O)NC(C(C)C)C(=O)N(C)C(C(C)C)C(=O)N(C)C(Cc2c[nH]c3cccc(OC)c23)C(=O)NC(C(C)C)C(=O)NC(Cc2ccccc2)C(=O)NC(C(C)C)C(=O)OC1C)N(C)C(=O)C(NC(=O)C(C(C)C)N(C)C)C(C)C (stereo not shown) [H-16] (ξNMe2Val-V[NMeI]T[NMeT]V[NMeL]V[NMeV][NMeTrp(4-OMe)]VFV; ester 3-C; configuration not given here)
M. tuberculosis H37Rv [1]
  classification from MBC99 versus MIC: bactericidal
  MBC99: 0.19 µM (≈ 0.301 µg/mL)
[2]
  concentration effecting a 99% reduction in viability (MBC under low oxygen): approximately 1.5 μM
  concentration reducing viability of non-replicating M. tuberculosis by one log10: approximately 1.5 μM
Candida albicans
  MIC: >32 µM
  antimicrobial activity: Neither of the compounds displayed antimicrobial activity
  activity: no activity
Escherichia coli
  MIC: >32 µM
  antimicrobial activity: Neither of the compounds displayed antimicrobial activity
  activity: no activity
Staphylococcus aureus
  MIC: >32 µM
  antimicrobial activity: Neither of the compounds displayed antimicrobial activity
  activity: no activity
M. smegmatis
  activity: activity was lower
M. abscesses
  activity: significantly less active
  MIC: >32 µM
Vero cells
  IC50: > 32 µM
  in vitro mammalian cell toxicity: no in vitro mammalian cell toxicity
  cytotoxicity: No cytoxicity
M. tuberculosis H37Rv [3]; H37Rv reference in Table 15
  MIC: 0.37 µM (≈ 0.586 µg/mL)
M. tuberculosis H37Rv [3]; H37Rv reference in Table 19
  MIC: 0.16 µM (≈ 0.253 µg/mL)
M. tuberculosis H37Rv [3]; [5]
  MIC: 0.16 µM (≈ 0.253 µg/mL)
M. tuberculosis X003899
  MIC: 0.19 µM (≈ 0.301 µg/mL)
M. tuberculosis X004439
  MIC: 0.19 µM (≈ 0.301 µg/mL)
M. tuberculosis X004244
  MIC: 0.09 µM (≈ 0.143 µg/mL)
M. tuberculosis X005282
  MIC: 0.14 µM (≈ 0.222 µg/mL)
M. tuberculosis X005319
  MIC: 0.34 µM (≈ 0.539 µg/mL)
M. tuberculosis X001354
  MIC: 0.37 µM (≈ 0.586 µg/mL)

## NC[C@H]1O[C@H](O[C@H]2[C@H](O)[C@@H](O[C@H]3O[C@H](CO)[C@@H](O)[C@H](N)[C@H]3O)[C@H](N)C[C@@H]2N)[C@H](O)[C@@H](O)[C@@H]1O [Kanamycin]
Nonomuraea sp. MJM5123
  Growth in the presence of antibiotics: −

## C=C(NC(=O)C(=C)NC(=O)c1csc(C2=N[C@@H]3c4csc(n4)[C@H]4NC(=O)c5csc(n5)[C@H]([C@](C)(O)[C@@H](C)O)NC(=O)[C@H]5CSC(=N5)/C(=C/C)NC(=O)[C@H]([C@@H](C)O)NC(=O)c5csc(n5)[C@]3(CC2)NC(=O)[C@H](C)NC(=O)C(=C)NC(=O)[C@H](C)NC(=O)[C@H]([C@@H](C)CC)N[C@@H]2C=Cc3c([C@H](C)O)cc(nc3[C@H]2O)C(=O)O[C@@H]4C)n1)C(N)=O [Thiostrepton]
Nonomuraea sp. MJM5123
  Growth in the presence of antibiotics: −
  susceptibility of MJM5123 to the antibiotic: susceptible

## CN[C@H](CC(C)C)C(=O)N[C@H]1C(=O)N[C@@H](CC(N)=O)C(=O)N[C@H]2C(=O)N[C@H]3C(=O)N[C@H](C(=O)N[C@H](C(=O)O)c4cc(O)cc(O)c4-c4cc3ccc4O)[C@H](O)c3ccc(c(Cl)c3)Oc3cc2cc(c3O[C@@H]2O[C@H](CO)[C@@H](O)[C@H](O)[C@H]2O[C@H]2C[C@](C)(N)[C@H](O)[C@H](C)O2)Oc2ccc(cc2Cl)[C@H]1O [Vancomycin]
Nonomuraea sp. MJM5123
  Growth in the presence of antibiotics: −
  susceptibility of MJM5123 to the antibiotic: susceptible

## NNC(=O)c1ccncc1 [isoniazid]
M. tuberculosis H37Rv [4]
  MIC: 0.47 µM (≈ 0.0645 µg/mL)

## CO[C@H]1/C=C/O[C@@]2(C)Oc3c(C)c(O)c4c(O)c(c(/C=N/N5CCN(C)CC5)c(O)c4c3C2=O)NC(=O)/C(C)=C\C=C\[C@H](C)[C@H](O)[C@@H](C)[C@@H](O)[C@@H](C)[C@H](OC(C)=O)[C@@H]1C [rifampin]
M. tuberculosis H37Rv [4]
  MIC: 0.09 µM (≈ 0.0741 µg/mL)
